Laboratory results: article PMC8537386, “The Specificity and Broad Multitarget Properties of Ligands for the Free Fatty Acid Receptors FFA3/GPR41 and FFA2/GPR43 and the Related Hydroxycarboxylic Acid Receptor HCA2/GPR109A” (Pharmaceuticals, 2021)
Like-named read-outs stand apart in the source and are kept apart here.

Tests used:
FFA3/GPR41 [1] = target: T1, FFA3/GPR41 (Homo sapiens, UniProt O14843); parameters: method as in PMID 32141297; details: described in the literature; cited from earlier work
T1 construct: host or cells: Flp-In-293
T1 sequence (O14843 1-346): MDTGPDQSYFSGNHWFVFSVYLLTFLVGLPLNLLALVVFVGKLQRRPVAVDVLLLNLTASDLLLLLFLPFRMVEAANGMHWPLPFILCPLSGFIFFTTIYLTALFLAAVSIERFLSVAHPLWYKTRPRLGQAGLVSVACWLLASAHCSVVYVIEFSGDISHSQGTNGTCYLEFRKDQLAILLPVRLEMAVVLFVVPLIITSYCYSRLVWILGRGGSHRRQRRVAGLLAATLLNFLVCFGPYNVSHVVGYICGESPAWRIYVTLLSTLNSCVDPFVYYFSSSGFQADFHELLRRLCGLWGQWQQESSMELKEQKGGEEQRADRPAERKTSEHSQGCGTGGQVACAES

MCP-1 mRNA = experiment: LPS-induced MCP-1 gene expression in THP-1 macrophages (qRT-PCR); assay type: cell-based, human; details: 4 h LPS, LPS-treated cells = 100%; for decrease in MCP-1 mRNA: compound 50 µg/mL
Protocol: (§1) The human THP-1 monocyte cell line was obtained from ATCC (American Type Culture Collection). […] The THP-1 monocytes were stimulated to differentiate into macrophages with phorbol 12-myristate 13-acetate (PMA) (50 ng/mL) for 24 h. The medium was exchanged for PMA-free medium for 48 h before the cells were used for experiments.
(§2) The total RNA was isolated from THP-1 cells using TRIzol reagent, according to the manufacturer’s protocol. First-strand cDNA was synthesized from 2 µg of RNA using oligo(dT) primers with RevertAid H Minus kit (Thermo Fisher Scientific, USA). The qRT-PCR procedure was performed using ABsolute Blue QPCR SYBR Green Master Mix reagent (Thermo Fisher Scientific, USA) with a ViiA7 real-time PCR detection system (Applied Biosystems, USA). The primer pairs that were employed for HCA2/GPR109A were forward 5′-[…]-3′ and reverse 5′-[…]-3′; for FFA2/GPR43 were forward 5′-[…]-3′ and reverse 5′-[…]-3′; for FFA3/GPR41 were forward 5′-[…]-3′ and reverse 5′-[…]-3′; for IL-6 were forward 5′-[…]-3′ and reverse 5′-[…]-3′; for MCP-1 were forward 5′-[…]-3′ and reverse 5′-[…]-3′; for TNF-α were forward 5′-[…]-3′ and reverse 5′-[…]-3′; for RPS29 were forward 5′-[…]-3′ and reverse 5′- […]-3′. The mRNA levels were quantified and normalized to the levels of the reference gene RPS29 using the 2^−ΔΔCt method and presented as relative expression compared to the values for untreated cells.

FFA2/GPR43 = target: T2, FFA2/GPR43 (Homo sapiens, UniProt O15552); experiment: forskolin-stimulated cAMP accumulation assay, Flp-In-293 cells stably expressing FFA2/GPR43; assay type: cell-based; details: for inhibition at 50 µM: 50 µM compound, NA = not active up to 50 µM
T2 construct: host or cells: Flp-In-293
T2 sequence (O15552 1-330): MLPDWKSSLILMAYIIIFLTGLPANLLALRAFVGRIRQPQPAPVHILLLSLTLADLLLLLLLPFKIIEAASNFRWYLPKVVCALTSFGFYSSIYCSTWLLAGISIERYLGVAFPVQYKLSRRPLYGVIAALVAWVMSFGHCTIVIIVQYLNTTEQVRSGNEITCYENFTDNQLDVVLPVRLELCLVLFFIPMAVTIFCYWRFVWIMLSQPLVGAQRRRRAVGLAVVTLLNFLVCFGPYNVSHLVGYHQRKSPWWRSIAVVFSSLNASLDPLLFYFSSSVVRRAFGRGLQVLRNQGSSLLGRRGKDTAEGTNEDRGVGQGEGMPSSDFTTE
Protocol: (§3) All of our synthesized compounds were evaluated in forskolin-stimulated cAMP accumulation assay using Flp-In-293 cells stably expressing human FFA2/GPR43, FFA3/GPR41 or HCA2/GPR109A receptors (Table 1, Table 2 and Table 3; Figure 2).
(§4) Flp-In-293 cells (Invitrogen) were used for the generation of stable FFA3/GPR41 and FFA2/GRP43 cell lines using Flp-In System (Invitrogen). Flp-In-293 cells were cultured in Dulbecco’s modified Eagle medium (DMEM) supplemented with 10% fetal bovine serum (FBS), penicillin (100 U/mL), streptomycin (100 µg/mL), and zeocin (100 µg/mL). The cells were co-transfected with pOG44 (Invitrogen) and pcDNA5/FRT-FFA3 or pcDNA5/FRT-FFA2 using TurboFect (Thermo Fisher Scientific), and stable cell lines were generated according to the manufacturer’s protocol (Invitrogen). After transfection, the cells were cultured under selection pressure due to the presence of hygromycin B (100 µg/mL) in DMEM supplemented with 10% FBS, penicillin, and streptomycin.
(§5) For cAMP assay, the cells were distributed into a 384-well white microplate at a density of 12,000 cells per well and stimulated with the indicated compounds in the presence of 3 μM forskolin for 30 min. […] The cells and the compounds were diluted in 1X phosphate-buffered saline (PBS) supplemented with 0.5 mM of 3-isobutyl-1-methylxanthine. The intracellular cAMP levels were measured using a Lance cAMP kit according to the manufacturer’s instructions. The plates were read on a PerkinElmer Victor 3V multilabel plate reader. The cAMP was quantitated in each sample by comparison to a calibration curve of known cAMP quantities provided in the kit.

FFA3/GPR41 mRNA = experiment: FFA3/GPR41 gene expression in LPS-stimulated THP-1 macrophages (qRT-PCR); assay type: cell-based, human; details: 4 h LPS 1 µg/mL; for LPS-stimulated FFA3/GPR41 mRNA level: compound 50 µM, p < 0.05
Protocol: as §1, §2

[2] = cyclic voltammetry, electrooxidation potential; assay type: physicochemical; details: vs. Ag/Ag+; acetonitrile, glassy carbon electrode
Protocol: Cyclic voltammetry experiments were carried out using a PARSTAT 2273 electrochemical system. A stationary glassy carbon disk electrode (d = 0.8 mm) served as the working electrode, while the counter electrode was a Pt wire. The oxidation potentials were measured relative to an Ag/Ag^+ reference electrode. Acetonitrile was dried over P2O5 and distilled; the distillate was stored over CaH2 and redistilled immediately prior to use. Recrystallized tetrabutylammonium tetrafluoroborate (TBATFB) was used as a supporting electrolyte at 0.1 M concentration.

IL-6 mRNA = experiment: LPS-induced IL-6 gene expression in THP-1 macrophages (qRT-PCR); assay type: cell-based, human; details: 4 h LPS, LPS-treated cells = 100%; for decrease in IL-6 mRNA: compound 50 µg/mL
Protocol: as §1, §2

[3] = parameters: method as in PMID 32141297; details: calculated with ChemDraw Professional Version 16; cited from earlier work
TNF-α mRNA = experiment: LPS-induced TNF-α gene expression in THP-1 macrophages (qRT-PCR); assay type: cell-based, human; details: 4 h LPS, LPS-treated cells = 100%; for decrease in TNF-α mRNA: compound 50 µg/mL
Protocol: as §1, §2

FFA3/GPR41 [4] = target: T1, FFA3/GPR41; experiment: forskolin-stimulated cAMP accumulation assay, Flp-In-293 cells stably expressing FFA3/GPR41; assay type: cell-based; details: for Emax: read-out: FFA3/GPR41 Emax, maximal inhibition of forskolin-stimulated cAMP (converted)
Protocol: as §3, §4, §5

HCA2/GPR109A mRNA = experiment: HCA2/GPR109A gene expression in LPS-stimulated THP-1 macrophages (qRT-PCR); assay type: cell-based, human; details: compound 50 µM; 4 h LPS 1 µg/mL; p < 0.05
Protocol: as §1, §2

HCA2/GPR109A = target: T3, HCA2/GPR109A (Homo sapiens, UniProt Q8TDS4); experiment: forskolin-stimulated cAMP accumulation assay, Flp-In-293 cells stably expressing HCA2/GPR109A; assay type: cell-based; details: for Emax / EC50: mean ± SD; for Emax: read-out: HCA2/GPR109A Emax, maximal inhibition of forskolin-stimulated cAMP (converted); for EC50: inhibition of forskolin-stimulated cAMP, read-out: HCA2/GPR109A EC50
T3 construct: expressed in transfected cells; host or cells: Flp-In-293
T3 sequence (Q8TDS4 whole entry): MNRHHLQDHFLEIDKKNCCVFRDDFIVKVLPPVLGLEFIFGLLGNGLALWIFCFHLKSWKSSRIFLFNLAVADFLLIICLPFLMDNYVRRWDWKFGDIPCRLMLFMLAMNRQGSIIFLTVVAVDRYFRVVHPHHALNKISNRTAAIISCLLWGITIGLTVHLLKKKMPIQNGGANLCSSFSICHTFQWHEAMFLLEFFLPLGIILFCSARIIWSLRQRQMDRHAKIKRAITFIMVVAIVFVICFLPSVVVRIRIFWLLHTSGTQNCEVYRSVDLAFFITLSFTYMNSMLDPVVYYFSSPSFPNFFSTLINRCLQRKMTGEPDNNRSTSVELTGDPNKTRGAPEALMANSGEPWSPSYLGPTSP
Protocol: as §3
Flp-In-293 cells stably expressing human HCA2/GPR109A receptor (laboratory collection) were grown in DMEM medium supplemented with 10% FBS, penicillin, streptomycin, and hygromycin B (100 µg/mL). All cells were cultured at 37 °C in a humidified incubator containing 5% CO2.
as §5

FFA2/GPR43 mRNA = experiment: FFA2/GPR43 gene expression in LPS-stimulated THP-1 macrophages (qRT-PCR); assay type: cell-based, human; details: 4 h LPS 1 µg/mL
Protocol: as §1, §2

[5] = inhibition of forskolin-stimulated cAMP, absence of propionate, mean ± SD, read-out: FFA3/GPR41 EC50
[6] = presence of 5 µM propionate, read-out: FFA3/GPR41 EC50 in the presence of propionate

Compound	decrease in MCP-1 mRNA (MCP-1 mRNA) [%]	LPS-stimulated FFA3/GPR41 mRNA level (FFA3/GPR41 mRNA)	El.ox. pot. (first, lower potential) [2] [V]	El.ox. pot. (second, higher potential) [2] [V]	decrease in IL-6 mRNA (IL-6 mRNA) [%]	logP [3]	decrease in TNF-α mRNA (TNF-α mRNA) [%]	Emax (FFA3/GPR41 [4]; Flp-In-293, mean ± SD) [%]	EC50 (FFA3/GPR41 [4]; [5]) [nM]	EC50 (FFA3/GPR41 [4]; [6]) [nM]	LPS-stimulated HCA2/GPR109A mRNA level (HCA2/GPR109A mRNA)	other results
4-i-butylhexahydroquinoline methyl ester [compound 28]												activity in the cAMP assay (in words) (FFA3/GPR41 [1]): no activity
CC1=C(C(=O)Nc2ccccc2C)C(c2cccs2)C2=C(CCCC2=O)N1 (stereo not drawn) [1-1]	53 ± 5	significantly increased	1.19	1.64	67 ± 1	2.65	59 ± 10	96	1790 ± 300	640 ± 200		activity towards FFA2/GPR43 (in words) (FFA2/GPR43; cAMP assay): lacked activity
CC1=C(C(=O)Nc2ccccc2C)C(c2ccco2)C2=C(CCCC2=O)N1 (stereo not drawn) [1-2]	67 ± 10	significantly increased	1.19	1.99	74 ± 1	2.18	64 ± 13	93	610 ± 90	580 ± 30		
CC1=C(C(=O)Nc2cc(Cl)ccc2Cl)C(c2ccco2)C2=C(CCCC2=O)N1 (stereo not drawn) [1-3]						2.90		99	320 ± 50	100 ± 20		
CC1=C(C(=O)Nc2ccc(Cl)cc2Cl)C(c2ccco2)C2=C(CCCC2=O)N1 (stereo not drawn) [1-4, N-(2,4-Dichlorophenyl)-4-(furan-2-yl)-2-methyl-5-oxo-1,4,5,6,7,8-hexahydroquinoline-3-carboxamide]	37 ± 6		1.24	1.67	64 ± 5		50 ± 2	86	230 ± 70	81 ± 40		
O=c1[nH]c(=O)c2c(CCCCCl)cc(=O)oc2[nH]1 [2-7, 5-(4-Chlorobutyl)-1H-pyrano[2,3-d]pyrimidine-2,4,7-trione]	50 ± 5	significantly increased			74 ± 3		48 ± 11	89	220 ± 30		significantly reduced	Emax (FFA2/GPR43; Flp-In-293, mean ± SD, read-out: FFA2/GPR43 Emax, maximal inhibition of forskolin-stimulated cAMP (converted)): 88%; EC50 (FFA2/GPR43; inhibition of forskolin-stimulated cAMP, mean ± SD): 380 ± 60 nM; Emax (HCA2/GPR109A; HCA2): 98%; EC50 (HCA2/GPR109A): 54 ± 6 nM; El.ox. pot. (single value) [2]: 1.94 V
O=C(CSc1nc(=O)c2c(CCCCCl)cc(=O)oc2[nH]1)OCc1ccccc1 [3-3]	49 ± 5	significantly increased			65 ± 2		53 ± 9				significantly reduced	inhibition at 50 µM (FFA2/GPR43; Flp-In-293): 66 ± 6%; Emax (HCA2/GPR109A; HCA2): 85%; EC50 (HCA2/GPR109A): 17000 ± 3000 nM; inhibition at 50 µM (FFA3/GPR41 [4]; Flp-In-293, 50 µM compound, NA = not active up to 50 µM): 72 ± 2%
CC(Sc1nc(=O)c2c(CCCCCl)cc(=O)oc2[nH]1)C(=O)c1ccc(OCc2ccccc2)cc1 (stereo not drawn) [3-4, 2-[2-(4-Benzyloxy-phenyl)-1-methyl-2-oxo-ethylsulfanyl]-5-(4-chlorobutyl)-1H-pyrano[2,3-d]pyrimidine-4,7-dione]	41 ± 1				61 ± 1		58 ± 10	95	380 ± 100		significantly reduced	inhibition at 50 µM (FFA2/GPR43; Flp-In-293): 49 ± 2%; inhibition at 50 µM (HCA2/GPR109A; HCA2, 50 µM compound, NA = not active up to 50 µM): 33 ± 16%; El.ox. pot. (single value) [2]: 1.98 V
O=C(O)c1cccnc1 [niacin, reference compound]												LPS-stimulated FFA2/GPR43 gene expression (FFA2/GPR43 mRNA; niacin 50 µM): did not affect; downregulation of LPS-induced MCP-1 mRNA (MCP-1 mRNA; niacin 50 µM): 29 ± 1%; LPS-stimulated FFA3/GPR41 gene expression (FFA3/GPR41 mRNA; niacin 50 µM): did not affect; downregulation of LPS-induced TNF-α mRNA (TNF-α mRNA; niacin 50 µM): 32 ± 3%
CCC(=O)O [propionate, reference compound]												LPS-upregulated FFA2/GPR43 gene expression (FFA2/GPR43 mRNA; propionate 1 mM, not statistically significant (p > 0.05)): slightly increased; downregulation of LPS-induced MCP-1 mRNA (MCP-1 mRNA; propionate 1 mM): 33 ± 2%; downregulation of LPS-induced IL-6 mRNA (IL-6 mRNA; propionate 1 mM): 66 ± 5%; downregulation of LPS-induced TNF-α mRNA (TNF-α mRNA; propionate 1 mM): 42 ± 4%
